Non-standard residues stand in square brackets, D forms with d. βAla = NCCC(=O)O
Assays:
IkappaBalpha = assay: Cytoplasmic stability of I-kappaBalpha in lung, zymosan-induced inflammation; assay type: in vivo, mice; details: lung tissue, 24 hours after zymosan
Procedure: Male BALB/c mice were randomly allocated into the following experimental groups:
The peptides were administered by an intraperitoneal (i.p.) route of administration as described in Example 3.
The peptides were formulated in D5W as described in Example 3. The vehicle control was D5W.
At 24 hours after administration of zymosan, animals were euthanized and assessed for inflammation by an NF-κB analysis of lung tissue.
Tissues were homogenized and nuclear extracts prepared via centrifugation. ELISA for IkappaBalpha was performed, using a series of standards in order to define absolute concentrations.

p38 MAP Kinase = assay: Inhibition of oxidative stress (auranofin)-induced p38 phosphorylation in SH-SY5Y cells; assay type: cell-based, Human; details: auranofin 5 μM
Procedure: Human neuroblastoma SH-SY5Y cells were maintained in Dulbecco's modified Eagle's medium (DMEM, Invitrogen) supplemented with 10% fetal bovine serum (Invitrogen), 100 μg/ml streptomycin and 100 U/ml penicillin G (Gibco). Cells were plated at a density of 6.25×10^4/cm^2 and incubated for 24 hours, after which they were exposed to different treatments.
SH-SY5Y cells were plated on 96-well plates and treated with Auranofin (AuF) (5 μM) for 30 min. Then the cells were washed with PBS and treated with either one of the peptides at the indicated concentrations. Twenty-four hours later, the cells were fixed with glutaraldehyde in final concentration of 0.5% for 10 min. Cells were washed 3 times with DDW dried over night, and washed once with borate buffer (0.1M, pH 8.5). The fixed cells were stained with 200 μl of 1% methylene blue dissolved in borate buffer for 1 hour. After extensive washing and drying, the color was extracted with 200 μl of 0.1 M HCl for 1 h at 37° C. and absorbance was read in spectrophotometer at 630 nm.
Twenty to thirty micrograms of protein samples were loaded on 10-12% SDS-PAGE gels. The proteins were then transferred electrophoretically to nitrocellulose (Whatman, Germany). The blots were blocked by incubation for 1 h at room temperature (RT) in TBS-T (25 mM Tris-HCl pH 7.4, 0.9% NaCl and 0.02% Tween-20) with 4% Difco skim milk (BD, USA), and incubated over-night at 4° C. with the primary antibody: pERK1/2 (Thr 202/Tyr204), mouse mAb, (1:6,000); p-SAPK/JNK (Thr183/Tyr185), rabbit mAb; SAPK/JNK, mouse mAb; p-p38MAP Kinase (Thr180/Tyr182), rabbit mAb; cleaved caspase 3, rabbit mAb. All antibodies were from Cell Signaling Tech. USA, used at 1:1000. Purified b Catenin, mouse mAb, (1:10,000; BD Transduction Laboratories, USA) diluted in 5% BSA, 0.04% Azide in TBS-T. Proteins were detected with Anti-Mouse or Anti-Rabbit IgG-HRP linked antibody (1:10,000; Cell Signaling, Tech. USA).

[1] = tested on: cellularity of the peritoneal exudates; assay: Ovalbumin-induced hypersensitivity (allergic peritonitis): peritoneal cellularity; assay type: in vivo, mice; details: 125 mg/kg i.p. on days 13, 14, 15
Procedure: Male BALB/c mice (6-8 weeks old) were housed under specific pathogen-free conditions and maintained on a 12-hour light/dark cycle, with food and water ad libitum. All materials and drugs were obtained from Sigma, Inc.
Mice in Groups A, B, C, and E (n=10 per group) were sensitized with intraperitoneal (i.p.) 200 μl of sterile PBS containing 100 μg ovalbumin (OVA) and 1.6 mg alum on days 0 and 7, and challenged with intraperitoneal (i.p.) 200 μl of sterile PBS containing 10 μg ovalbumin (OVA) on day 14 in order to induce an experimental model of allergic peritonitis. Mice in Group F (n=10) were injected with intraperitoneal (i.p) 200 μl sterile PBS (“sham” group, no OVA and no Alum).
Mice in Groups A, B, and C, were treated with 150 μl of sterile PBS containing peptides DY-66, DY-65 and DY-70, respectively, at a dose of 125 mg/kg on days 13, 14, and 15 via an i.p. route of administration.
Mice in Groups E and F were treated with 150 μl of sterile PBS on days 13, 14, and 15 via an i.p. route of administration. On day 14 the test articles (or PBS vehicle) were injected 30 minutes before injecting the OVA.

HaCaT cells = assay: Hydrogen peroxide-induced HaCaT keratinocyte cytotoxicity (MTT); assay type: cell-based; details: 90 μM hydrogen peroxide 30 min; MTT after 72 hours
Procedure: All five peptides were examined in this Example, and their activity was compared to the known CB3 peptide. HaCaT cells were seeded in 96-well plate at a concentration of 10×10^4 cells/ml for 24 hours. Then cells were incubated with the peptides at the indicated concentrations for 2.5 hours followed by washing with PBS and incubation with 90 μM hydrogen peroxide (without peptide) for 30 minutes. Cells were washed with PBS and incubated with culture medium containing peptide for 72 hours. Cell viability was tested by MTT. The effect of the peptides on cell viability was performed similarly without hydrogen peroxide exposure.

carnitine = assay: Carnitine levels in mouse tissues; assay type: in vivo, mice; details: 250 mg/kg i.p. for 5 consecutive days
Procedure: Male ICR mice were injected i.p. with 250 mg/kg DY-65 for 5 consecutive days. Half an hour after the last injection lung, heart, skeletal muscle (femural), brain, liver, kidney and blood were removed, homogenized (100 mg tissue in 200 μl distilled water), centrifuged and filtrated through 30K Microcon® filter. Carnitine analysis was carried out by a commercial kit (BioVision, catalogue number K642-100). n=4 for each group.

[2] = tested on: granulocytes at the peritoneal lavages; assay: Ovalbumin-induced hypersensitivity: percentage of granulocytes in peritoneal lavage (FACS); assay type: in vivo, mice; details: 125 mg/kg; Mann-Whitney with Bonferroni correction, p<=0.0125
Procedure: Hypersensitivity was induced as described in Example 5. The mice were treated according to the above protocol with PBS alone (“PBS”, no OVA and no Alum), OVA (“OVA”), OVA+CB3 104 mg/kg, OVA+DY-66 83 mg/kg and OVA+DY-66 125 mg/kg. In all groups, 9 mice were used except for OVA+DY-66 83 mg/kg, where 10 mice were used.
At day 16 the animals were sacrificed, the peritoneum was washed with 4-5 ml of sterile PBS, centrifuged and the cells were re-suspended in sterile PBS containing FCS 2%.
Percentage of granulocytes at the peritoneal lavages were measured by the use of FACS machine analysis of all cells during 10 second flow, followed by a careful analysis of the FACS dot plots.

[3] = Metal chelation: ferric ion binding by mass spectra (ESI); details: 0.83 mM peptide, 1.66 mM FeCL3, 1 hour room temperature
Procedure: All five peptides were examined for their ability to bind copper and ferric ions. 0.83 mM of each peptide were mixed with 1.66 mM of either FeCL3 or CuSO4. The mixtures were incubated for 1 hour at room temperature and further kept at ° 4 C until analysis. Samples were analyzed by mass spectra (ESI).

Substance | rank order of efficacy on cytoplasmic IkappaBalpha (IkappaBalpha) | IC50 (p38 MAP Kinase) [µM] | effect on OVA-induced elevation of peritoneal exudate cellularity (in words) [1] | rank order of reduction of peritoneal exudate cellularity [1] | protection of cell viability after hydrogen peroxide exposure (in words) (HaCaT cells) | increase in the level of carnitine in other tissues (carnitine) | increase in the level of carnitine in some tissues (carnitine; significant elevation) | difference in percentage of granulocytes (medians) between OVA and OVA+peptide [2] | FeCl binding (in words) [3]
N-acetyl-Cys-Lys-Met-Cys-NH2 (Ac-CKMC-NH2; cysteine pairing not given here) [DY-65] | DY-70>DY-65>DY-66 | 36.7 | significantly reduced the elevation | DY-65>DY-70>DY-66 | slightly elevated cell viability | about 70% | about 150% | – | –
N-acetyl-Cys-βAla-His-Cys-NH2 (Ac-C[βAla]HC-NH2; cysteine pairing not given here) [DY-66] | DY-70>DY-65>DY-66 | 67 | significantly reduced the elevation | DY-65>DY-70>DY-66 | slightly elevated cell viability | – | – | highly significant | binding was observed

Source: patent publication US8802635B2, “Antioxidant, anti-inflammatory, anti-radiation, metal chelating compounds and uses thereof” (Oneday—Biotech And Pharma Ltd., priority 2011, dated 2014)
